Read-outs that look alike come from different tables or passages of the source.
Legend:
[1] = target: T1, sodium iodide symporter (NIS), iodide uptake in FRTL5 cells (Rattus norvegicus, UniProt Q63008); test: Inhibition of iodide uptake in FRTL5 cells, non radioactive arsenic/cerium assay; type: cell-based; details: NaI 10 μM, 1 hour, 20°C, read-out: IC50 (μM), inhibitory activity against iodide uptake in FRTL5 cells
T1 construct: endogenous in cells; host or cells: FRTL5 (rat thyroid-derived cells)
T1 sequence (Q63008 1-618): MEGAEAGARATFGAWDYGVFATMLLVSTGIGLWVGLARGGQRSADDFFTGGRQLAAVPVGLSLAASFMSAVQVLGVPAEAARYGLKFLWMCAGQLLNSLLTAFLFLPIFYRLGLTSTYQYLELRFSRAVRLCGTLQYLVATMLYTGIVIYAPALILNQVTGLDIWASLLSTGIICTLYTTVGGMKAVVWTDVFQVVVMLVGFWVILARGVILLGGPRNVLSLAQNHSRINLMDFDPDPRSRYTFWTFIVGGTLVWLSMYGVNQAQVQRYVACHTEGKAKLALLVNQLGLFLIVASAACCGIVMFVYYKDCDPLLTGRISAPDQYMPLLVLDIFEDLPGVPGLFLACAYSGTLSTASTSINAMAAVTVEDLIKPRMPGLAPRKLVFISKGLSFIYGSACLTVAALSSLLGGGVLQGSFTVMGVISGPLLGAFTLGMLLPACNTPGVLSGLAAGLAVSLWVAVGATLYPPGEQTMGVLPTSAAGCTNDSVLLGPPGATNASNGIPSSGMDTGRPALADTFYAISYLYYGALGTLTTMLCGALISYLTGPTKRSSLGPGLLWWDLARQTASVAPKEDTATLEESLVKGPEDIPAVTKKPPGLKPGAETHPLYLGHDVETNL
Experimental: Some of the synthesized compounds were evaluated for their ability to inhibit iodide entrapment in FRTL5 cells. The IC50 values were measured in at least […] independent experiments.
The biological activity of each compound was determined in FRTL5 cells, using a non radioactive arsenic/cerium assay as described in F. Waltz et al., Anal. Biochem., 2012, 396, 91-95. Compound potency was expressed as IC50, the concentration of compound necessary to achieve 50% inhibition of iodide uptake. Briefly, to FRTL5 cells at 70-90% confluence was added compound (200 μM, 10 μM, 0.5 μM, 25 nM, 1.2 nM, 60 pM, […], and 0.15 pM final), followed by NaI (10 μM final). After 1 hour incubation at 20±1° C., supernatant was removed and the cells were immediately assayed for iodide content using the modified As/Ce Sandell-Kolthoff reaction. NaClO4 was tested in each microplate as assay controls. The IC50 values of all compounds were measured least thrice independently.
Stock solutions of tested compounds were prepared in DMSO (20 mM) and that of NaClO4 in water (20 mM). These stock solutions were stored at 4° C. for up to 2 months. Sample dilutions: the day of the assay, a daughter plate (clear flat-bottomed 96-well polystyrene microplates, Costar 9017) was prepared from 20 mM stock solutions. NaClO4 (column 2) and DHPM samples (columns 4 to 11) were diluted at 10× the final concentration in uptake buffer.
FRTL5 cells were cultured as described in F. S. Ambesi-Impiombato et al., Proc. Natl. Acad. Sci. USA, 1980, 77, 3455-3459. Briefly, FRTL5 cells were cultured in Coon's modified F12 medium supplemented with 5% heat-inactivated fetal bovine serum (Invitrogen), 2 mM L-glutamine, 100 U/mL penicillin, 0.1 mg/mL streptomycin, 10 μg/mL insulin, 10 nM hydrocortisone, 10 ng/mL Gly-His-Lys acetate, 1 mU/mL TSH, 5 μg/mL transferrin at 37° C. and 5% CO2. For iodide uptake assays, 200 μL of FRTL5 cells with density of 250,000 cells/mL were dispensed in each well of clear flat-bottomed 96-well polystyrene microplates (Costar 3628) using the Multidrop 384 (ThermoFisher Scientific), and further cultured until confluence reached 80-90% (3-4 days).
The culture medium of FRTL5 monolayer cells at 80-90% confluence was replaced by uptake buffer (20° C.) via continuous aspiration/dispense cycle (600 μL) using a 96-needle head plate washer PW 384 (Tecan). The 96-needle head was set to a vertical position such that 80 μL of fresh uptake buffer remained in each well at the end of the cycle. The samples (10 μL each) from the daughter plate were transferred all at once to the assay plate using the 96-tip head pipettor Liquidator 96 (Mettler Toledo). Immediately after, 10 μL of a NaI solution at 100 μM was added to each well of the assay plate using the Liquidator 96. The assay plate was left to stand in the dark at 20±1° C. for 60 min. The assay plate was then washed with cold (4° C.) uptake buffer using the PW 384 plate washer and residual supernatant was immediately discarded by inverting the assay plate on absorbent paper.
Sodium iodide standards (S1 to S7) and water (S0) were distributed in duplicate (100 μL each) in the first and last column of the assay plate. Water (100 μL) was added to the columns with the Multidrop 384. 100 μL of the ammonium cerium (IV) sulfate solution (10.5 mM) was distributed into the columns, followed by 100 μL of the sodium arsenite (III) solution (24 mM) using the Multidrop 384. The assay plate was left to stand at 20±1° C. for 30 min. The absorbance at 420 nm (Abs420) was immediately recorded on a SpectraMax Plus 384 (Molecular Devices). A calibration curve was prepared for each plate by plotting the logarithmic conversion of the means of Abs420 (n=2) vs iodide standard concentrations (S0 to S7). The iodide concentrations in the samples were determined after linear regression of the calibration curve.

[2] = Table 1, variations at R1, averaged from three or four independent experiments
[3] = Table 2, variations at R5, averaged from three or four independent experiments
[4] = Table 3, variations at R2, averaged from three or four independent experiments
[5] = Table 4, variations at X, R3, R4, averaged from three or four independent experiments
[6] = Table 5, variations at Y, R1, R3, R4, R5, averaged from two to four independent experiments

Row | melting point [°C] | IC50 [1, 6] [µM] | SMILES | further results
1 | 157 to 159 | – | COc1ccc(COC(=O)C2=C(C)NC(=O)NC2c2ccc(C)o2)cc1 (stereo not shown) [Compound 29, 4-Methoxybenzyl 6-methyl-2-oxo-4-(5-methylfuran-2-yl)-1,2,3,4-tetrahydropyrimidine-5-carboxylate] | IC50 [1, 2]: 0.09 µM
2 | 152 to 154 | – | COc1ccc(COC(=O)C2=C(C)NC(=O)NC2c2cccs2)cc1 (stereo not shown) [Compound 30, 4-Methoxybenzyl 4-(thiophen-2-yl)-6-methyl-2-oxo-1,2,3,4-tetrahydropyrimidine-5-carboxylate] | IC50 [1, 2]: 0.05 µM
3 | 156 to 158 | – | COc1ccc(COC(=O)C2=C(C)NC(=O)NC2c2ccsc2)cc1 (stereo not shown) [Compound 31, 4-Methoxybenzyl 6-methyl-2-oxo-4-(thiophen-3-yl)-1,2,3,4-tetrahydropyrimidine-5-carboxylate] | IC50 [1, 2]: 0.04 µM
4 | 174 to 175 | – | CC1=C(C(=O)OCc2ccccc2)C(c2ccccc2)NC(=O)N1 (stereo not shown) [Compound 32, Benzyl 6-methyl-2-oxo-4-phenyl-1,2,3,4-tetrahydropyrimidine-5-carboxylate] | IC50 [1, 3]: 0.19 µM
5 | 193 to 195 | – | CC1=C(C(=O)OCc2ccccc2Cl)C(c2ccccc2)NC(=O)N1 (stereo not shown) [Compound 33, 2-Chlorobenzyl 6-methyl-2-oxo-4-phenyl-1,2,3,4-tetrahydropyrimidine-5-carboxylate] | IC50 [1, 3]: 0.35 µM
6 | 216 to 217 | – | CC1=C(C(=O)OCc2ccc(Cl)cc2)C(c2ccccc2)NC(=O)N1 (stereo not shown) [Compound 34, 4-Chlorobenzyl 6-methyl-2-oxo-4-phenyl-1,2,3,4-tetrahydropyrimidine-5-carboxylate] | IC50 [1, 3]: 0.3 µM
7 | 196 to 197 | – | CC1=C(C(=O)OCc2ccc(F)cc2)C(c2ccccc2)NC(=O)N1 (stereo not shown) [Compound 35, 4-Fluorobenzyl 6-methyl-2-oxo-4-phenyl-1,2,3,4-tetrahydropyrimidine-5-carboxylate] | IC50 [1, 3]: 0.2 µM
8 | 157 to 159 | – | CC1=C(C(=O)OCc2ccccc2C)C(c2ccccc2)NC(=O)N1 (stereo not shown) [Compound 36, 2-Methylbenzyl 6-methyl-2-oxo-4-phenyl-1,2,3,4-tetrahydropyrimidine-5-carboxylate] | IC50 [1, 3]: 0.25 µM
9 | 62 to 65 | – | CCC1=C(C(=O)OCc2ccc(OC)cc2)C(c2ccccc2)NC(=O)N1 (stereo not shown) [Compound 40, 4-Methoxybenzyl 6-ethyl-2-oxo-4-phenyl-1,2,3,4-tetrahydropyrimidine-5-carboxylate] | IC50 [1, 4]: 0.07 µM
10 | 140 to 142 | – | COc1ccc(COC(=O)C2=C(Cc3ccccc3)NC(=O)NC2c2ccccc2)cc1 (stereo not shown) [Compound 45, 4-Methoxybenzyl 6-benzyl-2-oxo-4-phenyl-1,2,3,4-tetrahydropyrimidine-5-carboxylate] | IC50 [1, 4]: 0.25 µM
11 | 213 to 216 | – | COc1ccc(COC(=O)C2=C(CNC(=O)c3ccccc3)NC(=O)NC2c2ccccc2)cc1 (stereo not shown) [Compound 47, 4-Methoxybenzyl 2-oxo-6-(benzamidomethyl)-4-phenyl-1,2,3,4-tetrahydropyrimidine-5-carboxylate] | IC50 [1, 4]: 1.2 µM
12 | 78 to 80 | – | COc1ccc(COC(=O)C2=C(c3cccs3)NC(=O)NC2c2ccccc2)cc1 (stereo not shown) [Compound 48, 4-Methoxybenzyl 2-oxo-4-phenyl-6-(thiophen-2-yl)-1,2,3,4-tetrahydropyrimidine-5-carboxylate] | IC50 [1, 4]: 0.55 µM
13 | 134 to 136 | – | COc1ccc(COC(=O)C2=C(C)N(C)C(=O)NC2c2ccccc2)cc1 (stereo not shown) [Compound 50, 4-Methoxybenzyl 1,6-dimethyl-2-oxo-4-phenyl-1,2,3,4-tetrahydropyrimidine-5-carboxylate] | IC50 [1, 5]: 0.075 µM
14 | 174 to 175 | – | COc1ccc(COC(=O)C2=C(C)NC(=S)NC2c2ccccc2)cc1 (stereo not shown) [Compound 52, 4-methoxybenzyl 6-methyl-4-phenyl-2-thioxo-1,2,3,4-tetrahydropyrimidine-5-carboxylate] | IC50 [1, 5]: 0.095 µM
15 | 112 to 113 | 0.09 | COc1ccc(COC(=O)C2=C(C)N(C)C(=O)NC2c2ccco2)cc1 (stereo not shown) [Compound 53, 4-Methoxybenzyl 4-(furan-2-yl)-1,6-dimethyl-2-oxo-1,2,3,4-tetrahydropyrimidine-5-carboxylate] | –
16 | 165 to 166 | 0.00057 | COc1cccc(COC(=O)C2=C(C)NC(=O)NC2c2ccco2)c1 (stereo not shown) [Compound 55, 3-methoxybenzyl 4-(furan-2-yl)-6-methyl-2-oxo-1,2,3,4-tetrahydropyrimidine-5-carboxylate] | –
17 | 155 to 156 | 0.075 | COc1cccc(COC(=O)C2=C(C)N(C)C(=O)NC2c2ccco2)c1 (stereo not shown) [Compound 56, 3-Methoxybenzyl 4-(furan-2-yl)-1,6-dimethyl-2-oxo-1,2,3,4-tetrahydropyrimidine-5-carboxylate] | –
18 | 122 to 124 | 0.065 | COc1ccc(COC(=O)C2=C(C)N(C)C(=O)N(C)C2c2ccco2)cc1OC (stereo not shown) [Compound 58, 3,4-Dimethoxybenzyl 4-(furan-2-yl)-1,3,6-trimethyl-2-oxo-1,2,3,4-tetrahydropyrimidine-5-carboxylate] | –
19 | 169 to 171 | 0.004 | CC1=C(C(=O)OCc2ccc3c(c2)OCO3)C(c2ccco2)NC(=O)N1 (stereo not shown) [Compound 59, benzo[d][1,3]dioxol-5-ylmethyl 4-(furan-2-yl)-6-methyl-2-oxo-1,2,3,4-tetrahydropyrimidine-5-carboxylate] | –
20 | 141 to 143 | 0.073 | CC1=C(C(=O)OCc2ccc3c(c2)OCO3)C(c2ccco2)NC(=O)N1C (stereo not shown) [Compound 60, Benzo[d][1,3]dioxol-5-ylmethyl 4-(furan-2-yl)-1,6-dimethyl-2-oxo-1,2,3,4-tetrahydropyrimidine-5-carboxylate] | –
